Among the data in the kinase profiling compilation of Christmann-Franck et al. (2016) are residual activity values, retold here.

The term residual activity denotes the signal under treatment as a percentage of the control signal.

Sequence of MAPK11 (human) (Q15759 whole entry, looked up): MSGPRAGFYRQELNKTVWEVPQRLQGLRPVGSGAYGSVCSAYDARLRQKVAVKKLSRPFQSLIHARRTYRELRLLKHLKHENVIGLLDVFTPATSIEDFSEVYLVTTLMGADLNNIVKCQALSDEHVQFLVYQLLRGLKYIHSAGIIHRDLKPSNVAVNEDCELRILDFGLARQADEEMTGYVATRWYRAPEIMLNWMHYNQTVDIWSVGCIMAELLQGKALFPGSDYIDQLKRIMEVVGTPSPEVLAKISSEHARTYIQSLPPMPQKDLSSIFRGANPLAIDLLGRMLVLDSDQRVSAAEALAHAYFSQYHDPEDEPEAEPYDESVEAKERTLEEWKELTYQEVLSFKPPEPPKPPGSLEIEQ
Sequence of SGK2 (human) (Q9HBY8 whole entry, looked up): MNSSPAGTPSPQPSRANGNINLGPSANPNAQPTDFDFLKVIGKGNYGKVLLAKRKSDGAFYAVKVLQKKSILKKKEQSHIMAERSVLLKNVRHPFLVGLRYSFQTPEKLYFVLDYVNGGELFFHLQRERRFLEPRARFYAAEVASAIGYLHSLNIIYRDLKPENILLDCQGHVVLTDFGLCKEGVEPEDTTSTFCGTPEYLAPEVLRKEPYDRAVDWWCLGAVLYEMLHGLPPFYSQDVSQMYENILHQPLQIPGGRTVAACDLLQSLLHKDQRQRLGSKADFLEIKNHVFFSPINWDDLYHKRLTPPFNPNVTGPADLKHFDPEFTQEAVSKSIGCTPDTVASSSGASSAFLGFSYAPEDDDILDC
Sequence of MAPK12 (human) (P53778 whole entry, looked up): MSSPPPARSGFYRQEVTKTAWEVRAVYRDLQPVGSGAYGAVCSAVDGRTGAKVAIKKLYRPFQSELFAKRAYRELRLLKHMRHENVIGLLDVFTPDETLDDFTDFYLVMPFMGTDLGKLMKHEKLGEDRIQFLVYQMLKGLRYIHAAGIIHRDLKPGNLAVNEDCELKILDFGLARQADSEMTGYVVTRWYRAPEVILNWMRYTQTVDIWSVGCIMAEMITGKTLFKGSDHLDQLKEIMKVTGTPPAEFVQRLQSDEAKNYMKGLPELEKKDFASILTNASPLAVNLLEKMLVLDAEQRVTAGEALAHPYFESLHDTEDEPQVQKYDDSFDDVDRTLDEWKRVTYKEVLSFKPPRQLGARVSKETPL
Sequence of TNK2 (human) (Q07912 whole entry, looked up): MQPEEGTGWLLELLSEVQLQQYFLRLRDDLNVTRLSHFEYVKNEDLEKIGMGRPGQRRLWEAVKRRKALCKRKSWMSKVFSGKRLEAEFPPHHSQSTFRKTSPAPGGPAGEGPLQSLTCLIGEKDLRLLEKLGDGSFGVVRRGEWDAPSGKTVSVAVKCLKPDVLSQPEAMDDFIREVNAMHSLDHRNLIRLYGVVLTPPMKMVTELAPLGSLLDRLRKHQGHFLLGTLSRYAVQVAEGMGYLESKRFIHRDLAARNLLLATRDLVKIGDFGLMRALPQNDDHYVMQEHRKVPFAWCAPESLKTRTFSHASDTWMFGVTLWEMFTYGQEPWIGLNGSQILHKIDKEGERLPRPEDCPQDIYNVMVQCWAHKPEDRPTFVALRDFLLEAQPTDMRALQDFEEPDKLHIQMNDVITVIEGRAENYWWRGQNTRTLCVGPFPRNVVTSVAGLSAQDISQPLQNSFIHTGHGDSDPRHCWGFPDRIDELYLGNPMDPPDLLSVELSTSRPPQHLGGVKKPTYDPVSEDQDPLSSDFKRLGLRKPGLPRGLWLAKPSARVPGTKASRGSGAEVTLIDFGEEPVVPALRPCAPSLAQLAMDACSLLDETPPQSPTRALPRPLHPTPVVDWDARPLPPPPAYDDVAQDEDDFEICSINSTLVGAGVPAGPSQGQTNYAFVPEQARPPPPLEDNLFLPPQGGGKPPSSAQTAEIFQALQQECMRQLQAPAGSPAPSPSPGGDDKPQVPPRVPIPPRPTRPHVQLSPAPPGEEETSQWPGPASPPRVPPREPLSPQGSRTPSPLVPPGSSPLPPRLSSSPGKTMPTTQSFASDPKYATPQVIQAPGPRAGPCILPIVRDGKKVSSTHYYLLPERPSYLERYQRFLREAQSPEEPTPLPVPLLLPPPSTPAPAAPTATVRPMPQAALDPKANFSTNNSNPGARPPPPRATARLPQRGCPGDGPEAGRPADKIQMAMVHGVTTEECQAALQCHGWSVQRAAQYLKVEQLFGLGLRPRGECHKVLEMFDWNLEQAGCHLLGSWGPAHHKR
Sequence of CAMK1 (human) (Q14012 whole entry, looked up): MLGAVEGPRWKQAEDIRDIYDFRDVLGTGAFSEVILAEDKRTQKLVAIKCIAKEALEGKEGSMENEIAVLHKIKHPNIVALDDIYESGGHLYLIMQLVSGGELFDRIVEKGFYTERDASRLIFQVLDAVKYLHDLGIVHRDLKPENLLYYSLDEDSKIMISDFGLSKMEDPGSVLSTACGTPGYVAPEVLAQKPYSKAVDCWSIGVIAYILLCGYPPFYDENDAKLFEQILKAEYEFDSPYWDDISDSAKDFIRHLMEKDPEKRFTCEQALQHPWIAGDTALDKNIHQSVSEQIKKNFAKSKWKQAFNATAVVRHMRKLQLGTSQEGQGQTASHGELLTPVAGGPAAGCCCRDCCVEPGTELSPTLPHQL

One assay addresses DYRK1B (human) (UniProt Q9Y463). As to the kind of experiment: radiometric filter-binding kinase assay, Kinase HotSpot. The note with it: compound 0.5 µM; ATP 10 µM.
For `CCN(CC)CCNC(=O)c1c(C)[nH]c(/C=C2\C(=O)Nc3ccc(Cl)cc32)c1C`, the residual activity is 47.5%.
Regarding `Nc1ncnc2[nH]nc(Nc3ccc(F)cc3)c12`, the residual activity was found to be 99.2%.
Still for that read-out and setting: the same measure for `CNc1cc2c(Nc3cccc(Br)c3)ncnc2cn1`: 92.3%.

The target of another assay is DCLK2 (human) (UniProt Q8N568). Described as above. Conditions: compound 0.5 µM; ATP 10 µM.
Sequence of DCLK2 (human) (Q8N568 whole entry, looked up): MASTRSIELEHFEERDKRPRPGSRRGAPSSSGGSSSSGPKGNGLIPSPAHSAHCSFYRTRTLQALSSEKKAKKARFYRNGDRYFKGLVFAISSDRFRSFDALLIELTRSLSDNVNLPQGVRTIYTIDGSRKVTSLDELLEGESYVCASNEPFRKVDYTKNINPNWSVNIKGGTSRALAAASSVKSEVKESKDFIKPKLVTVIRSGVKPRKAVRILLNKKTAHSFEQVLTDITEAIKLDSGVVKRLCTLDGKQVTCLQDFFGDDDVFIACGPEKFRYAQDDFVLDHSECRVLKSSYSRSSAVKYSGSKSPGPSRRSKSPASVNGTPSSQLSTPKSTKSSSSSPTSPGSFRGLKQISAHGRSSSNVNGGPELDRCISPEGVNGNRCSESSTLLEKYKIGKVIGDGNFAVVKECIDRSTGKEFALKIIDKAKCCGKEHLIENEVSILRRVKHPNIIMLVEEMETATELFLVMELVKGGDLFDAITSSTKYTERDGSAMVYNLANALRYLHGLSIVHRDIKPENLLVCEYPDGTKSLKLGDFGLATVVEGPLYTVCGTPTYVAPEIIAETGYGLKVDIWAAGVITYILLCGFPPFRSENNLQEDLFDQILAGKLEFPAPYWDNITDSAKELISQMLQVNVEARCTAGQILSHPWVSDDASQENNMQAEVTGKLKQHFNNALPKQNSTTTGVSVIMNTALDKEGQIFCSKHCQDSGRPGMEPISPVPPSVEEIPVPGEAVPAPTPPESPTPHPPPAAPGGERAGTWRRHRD
Turning to `CCN(CC)CCNC(=O)c1c(C)[nH]c(/C=C2\C(=O)Nc3ccc(Cl)cc32)c1C`, the residual activity came to 82.8%.
On to `Nc1ncnc2[nH]nc(Nc3ccc(F)cc3)c12`, for which the residual activity came out at 99.5%.
Still for that read-out and setting: the same measure for `CNc1cc2c(Nc3cccc(Br)c3)ncnc2cn1`: 90.4%.

A further assay has as its target MAPK12 (human) (UniProt P53778). The assay is described as above. Conditions: compound 0.5 µM; ATP 10 µM.
Consider `CCN(CC)CCNC(=O)c1c(C)[nH]c(/C=C2\C(=O)Nc3ccc(Cl)cc32)c1C`, for which the residual activity turned out to be 96.6%.
As to `Nc1ncnc2[nH]nc(Nc3ccc(F)cc3)c12`, the residual activity stood at 94.2%.
Turning to `CNc1cc2c(Nc3cccc(Br)c3)ncnc2cn1`, the residual activity is 93.6%.

A further assay addresses SGK2 (human) (UniProt Q9HBY8). The description is as above. The note with it: compound 0.5 µM; ATP 10 µM.
For `CCN(CC)CCNC(=O)c1c(C)[nH]c(/C=C2\C(=O)Nc3ccc(Cl)cc32)c1C`, the residual activity stood at 62.8%.
For the compound `Nc1ncnc2[nH]nc(Nc3ccc(F)cc3)c12`, the residual activity is 96.5%.
On the same count and under the same terms, the value for `CNc1cc2c(Nc3cccc(Br)c3)ncnc2cn1` was 96.6%.

Another assay addresses CSNK2A1 (human) (UniProt P68400). The assay is described as above. Conditions: compound 0.5 µM; ATP 10 µM.
For `CCN(CC)CCNC(=O)c1c(C)[nH]c(/C=C2\C(=O)Nc3ccc(Cl)cc32)c1C`, the residual activity came to 91.4%.
Still for that read-out and setting: the value for `Nc1ncnc2[nH]nc(Nc3ccc(F)cc3)c12` was 89.9%.
The same measure, in the same setting: the value for `CNc1cc2c(Nc3cccc(Br)c3)ncnc2cn1` was 94.3%.

A further assay addresses MAPK11 (human) (UniProt Q15759). The description is as above. The note with it: compound 0.5 µM; ATP 10 µM.
On to `CCN(CC)CCNC(=O)c1c(C)[nH]c(/C=C2\C(=O)Nc3ccc(Cl)cc32)c1C`, for which the residual activity turned out to be 100%.
On to `Nc1ncnc2[nH]nc(Nc3ccc(F)cc3)c12`, for which the residual activity stood at 108%.
For `CNc1cc2c(Nc3cccc(Br)c3)ncnc2cn1`, the residual activity came to 115%.

For another assay, the target named is MET (human) (UniProt P08581). The description is as above. Conditions: compound 0.5 µM; ATP 10 µM.
Sequence of MET (human) (P08581 whole entry, looked up): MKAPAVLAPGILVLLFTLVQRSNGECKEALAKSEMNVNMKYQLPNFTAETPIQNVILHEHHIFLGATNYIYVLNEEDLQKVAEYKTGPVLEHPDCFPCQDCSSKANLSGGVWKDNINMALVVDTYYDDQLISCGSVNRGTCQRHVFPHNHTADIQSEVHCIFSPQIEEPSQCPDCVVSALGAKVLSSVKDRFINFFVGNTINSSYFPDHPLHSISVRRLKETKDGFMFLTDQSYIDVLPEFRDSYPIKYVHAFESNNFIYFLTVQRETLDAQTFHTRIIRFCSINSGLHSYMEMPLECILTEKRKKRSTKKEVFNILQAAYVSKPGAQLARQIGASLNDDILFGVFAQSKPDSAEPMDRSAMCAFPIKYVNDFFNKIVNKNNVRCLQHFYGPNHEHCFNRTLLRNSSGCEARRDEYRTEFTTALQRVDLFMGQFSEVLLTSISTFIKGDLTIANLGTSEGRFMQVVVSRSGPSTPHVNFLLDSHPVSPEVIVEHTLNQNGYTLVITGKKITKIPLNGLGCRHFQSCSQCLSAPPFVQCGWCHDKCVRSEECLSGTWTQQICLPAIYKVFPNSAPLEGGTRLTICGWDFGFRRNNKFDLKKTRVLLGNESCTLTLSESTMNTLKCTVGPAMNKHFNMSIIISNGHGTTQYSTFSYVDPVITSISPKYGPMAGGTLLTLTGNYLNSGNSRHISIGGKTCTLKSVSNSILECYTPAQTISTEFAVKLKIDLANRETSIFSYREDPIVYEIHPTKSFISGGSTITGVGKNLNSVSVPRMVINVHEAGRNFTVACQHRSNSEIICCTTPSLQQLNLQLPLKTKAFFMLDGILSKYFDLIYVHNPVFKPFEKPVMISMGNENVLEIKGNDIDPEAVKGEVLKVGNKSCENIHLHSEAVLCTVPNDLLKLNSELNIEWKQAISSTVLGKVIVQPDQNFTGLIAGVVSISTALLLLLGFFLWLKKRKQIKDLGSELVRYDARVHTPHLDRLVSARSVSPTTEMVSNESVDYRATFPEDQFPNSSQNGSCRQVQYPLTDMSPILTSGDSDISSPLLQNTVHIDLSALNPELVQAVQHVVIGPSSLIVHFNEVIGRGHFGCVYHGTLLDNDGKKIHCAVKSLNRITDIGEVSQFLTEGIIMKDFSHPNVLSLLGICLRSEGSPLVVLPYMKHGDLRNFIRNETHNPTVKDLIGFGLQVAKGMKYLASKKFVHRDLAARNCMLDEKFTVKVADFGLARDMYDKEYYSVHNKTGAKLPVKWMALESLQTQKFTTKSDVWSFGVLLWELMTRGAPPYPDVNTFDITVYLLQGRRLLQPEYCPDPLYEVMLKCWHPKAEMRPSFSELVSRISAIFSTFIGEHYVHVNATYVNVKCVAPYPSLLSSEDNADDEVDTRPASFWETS
Regarding `CCN(CC)CCNC(=O)c1c(C)[nH]c(/C=C2\C(=O)Nc3ccc(Cl)cc32)c1C`, the residual activity was 77%.
Still for that read-out and setting: the value for `Nc1ncnc2[nH]nc(Nc3ccc(F)cc3)c12` was 124%; that for `CNc1cc2c(Nc3cccc(Br)c3)ncnc2cn1` was 106%.

The target in a further assay is PHKG2 (human) (UniProt P15735). The description is as above. The note with it: compound 0.5 µM; ATP 10 µM.
Regarding `CCN(CC)CCNC(=O)c1c(C)[nH]c(/C=C2\C(=O)Nc3ccc(Cl)cc32)c1C`, the residual activity turned out to be 16.6%.
Still for that read-out and setting: the value for `Nc1ncnc2[nH]nc(Nc3ccc(F)cc3)c12` was 101%.
Still for that read-out and setting: the same measure for `CNc1cc2c(Nc3cccc(Br)c3)ncnc2cn1`: 113%.

In the next assay the target is HIPK4 (human) (UniProt Q8NE63). The description is as above. Conditions: compound 0.5 µM; ATP 10 µM.
`CCN(CC)CCNC(=O)c1c(C)[nH]c(/C=C2\C(=O)Nc3ccc(Cl)cc32)c1C`: the residual activity was determined as 61.7%.
For the compound `Nc1ncnc2[nH]nc(Nc3ccc(F)cc3)c12`, the residual activity was 98.5%.
For `CNc1cc2c(Nc3cccc(Br)c3)ncnc2cn1`, the residual activity was determined as 82.8%.

The target in another assay is PRKACG (human) (UniProt P22612). The assay is described as above. Conditions: compound 0.5 µM; ATP 10 µM.
Consider `CCN(CC)CCNC(=O)c1c(C)[nH]c(/C=C2\C(=O)Nc3ccc(Cl)cc32)c1C`, for which the residual activity was 101%.
Take `Nc1ncnc2[nH]nc(Nc3ccc(F)cc3)c12`: the residual activity worked out at 96.2%.
On the same count and under the same terms, the same measure for `CNc1cc2c(Nc3cccc(Br)c3)ncnc2cn1`: 115%.

Another assay deals with CSNK1G1 (human) (UniProt Q9HCP0). The description is as above. Conditions: compound 0.5 µM; ATP 10 µM.
In the case of `CCN(CC)CCNC(=O)c1c(C)[nH]c(/C=C2\C(=O)Nc3ccc(Cl)cc32)c1C`, the residual activity amounted to 69.2%.
The same measure, in the same setting: the value for `Nc1ncnc2[nH]nc(Nc3ccc(F)cc3)c12` was 83.3%; that for `CNc1cc2c(Nc3cccc(Br)c3)ncnc2cn1` was 81.7%.

The next assay deals with PIM1 (human) (UniProt P11309). Described as above. The note with it: compound 0.5 µM; ATP 10 µM.
Sequence of PIM1 (human) (P11309 whole entry, looked up): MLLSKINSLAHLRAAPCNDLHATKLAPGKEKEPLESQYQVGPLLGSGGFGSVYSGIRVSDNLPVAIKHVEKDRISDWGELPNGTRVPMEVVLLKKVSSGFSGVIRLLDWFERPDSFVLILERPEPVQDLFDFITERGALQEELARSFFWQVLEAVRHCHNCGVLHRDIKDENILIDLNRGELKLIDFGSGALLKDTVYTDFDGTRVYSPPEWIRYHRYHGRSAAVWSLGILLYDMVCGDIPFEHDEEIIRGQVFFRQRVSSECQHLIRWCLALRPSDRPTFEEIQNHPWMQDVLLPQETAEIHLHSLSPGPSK
For `CCN(CC)CCNC(=O)c1c(C)[nH]c(/C=C2\C(=O)Nc3ccc(Cl)cc32)c1C`, the residual activity amounted to 91.7%.
With `Nc1ncnc2[nH]nc(Nc3ccc(F)cc3)c12`, the residual activity turned out to be 95.5%.
`CNc1cc2c(Nc3cccc(Br)c3)ncnc2cn1`: the residual activity stood at 66.2%.

A further assay has as its target CAMK1 (human) (UniProt Q14012). Described as above. The note with it: compound 0.5 µM; ATP 10 µM.
Regarding `CCN(CC)CCNC(=O)c1c(C)[nH]c(/C=C2\C(=O)Nc3ccc(Cl)cc32)c1C`, the residual activity was 75.9%.
On to `Nc1ncnc2[nH]nc(Nc3ccc(F)cc3)c12`, for which the residual activity was 103%.
On to `CNc1cc2c(Nc3cccc(Br)c3)ncnc2cn1`, for which the residual activity was determined as 92.3%.

In another assay the target is CDC42BPB (human) (UniProt Q9Y5S2). The assay is described as above. The note with it: compound 0.5 µM; ATP 10 µM.
Regarding `CCN(CC)CCNC(=O)c1c(C)[nH]c(/C=C2\C(=O)Nc3ccc(Cl)cc32)c1C`, the residual activity was determined as 96.1%.
For the compound `Nc1ncnc2[nH]nc(Nc3ccc(F)cc3)c12`, the residual activity turned out to be 106%.
On the same count and under the same terms, the same measure for `CNc1cc2c(Nc3cccc(Br)c3)ncnc2cn1`: 107%.

In a further assay the target is MAP3K8 (human) (UniProt P41279). The description is as above. The note with it: compound 0.5 µM; ATP 10 µM.
With `CCN(CC)CCNC(=O)c1c(C)[nH]c(/C=C2\C(=O)Nc3ccc(Cl)cc32)c1C`, the residual activity came to 113%.
`Nc1ncnc2[nH]nc(Nc3ccc(F)cc3)c12`: the residual activity came to 99.7%.
The same measure, in the same setting: the value for `CNc1cc2c(Nc3cccc(Br)c3)ncnc2cn1` was 90.2%.

For another assay, the target named is RPS6KA2 KD1 KD2 (human) (UniProt Q15349). Described as above. The note with it: compound 0.5 µM; ATP 10 µM.
Turning to `CCN(CC)CCNC(=O)c1c(C)[nH]c(/C=C2\C(=O)Nc3ccc(Cl)cc32)c1C`, the residual activity came to 10%.
On the same count and under the same terms, the same measure for `Nc1ncnc2[nH]nc(Nc3ccc(F)cc3)c12`: 70.6%; for `CNc1cc2c(Nc3cccc(Br)c3)ncnc2cn1`: 83.5%.

Another assay has as its target CHEK2 (human) (UniProt O96017). The description is as above. Conditions: compound 0.5 µM; ATP 10 µM.
Regarding `CCN(CC)CCNC(=O)c1c(C)[nH]c(/C=C2\C(=O)Nc3ccc(Cl)cc32)c1C`, the residual activity stood at 6.42%.
On the same count and under the same terms, the value for `Nc1ncnc2[nH]nc(Nc3ccc(F)cc3)c12` was 98.6%.
Take `CNc1cc2c(Nc3cccc(Br)c3)ncnc2cn1`: the residual activity was found to be 85.7%.

Another assay concerns the target TNK2 (human) (UniProt Q07912). Described as above. The note with it: compound 0.5 µM; ATP 10 µM.
In the case of `CCN(CC)CCNC(=O)c1c(C)[nH]c(/C=C2\C(=O)Nc3ccc(Cl)cc32)c1C`, the residual activity came to 22.6%.
Consider `Nc1ncnc2[nH]nc(Nc3ccc(F)cc3)c12`, for which the residual activity came out at 61.5%.
Turning to `CNc1cc2c(Nc3cccc(Br)c3)ncnc2cn1`, the residual activity worked out at 30.3%.

The target of another assay is EPHA4 (human) (UniProt P54764). The assay is described as above. The note with it: compound 0.5 µM; ATP 10 µM.
For `CCN(CC)CCNC(=O)c1c(C)[nH]c(/C=C2\C(=O)Nc3ccc(Cl)cc32)c1C`, the residual activity came to 88%.
In the case of `Nc1ncnc2[nH]nc(Nc3ccc(F)cc3)c12`, the residual activity came to 90.1%.
Take `CNc1cc2c(Nc3cccc(Br)c3)ncnc2cn1`: the residual activity worked out at 94.2%.

The target in the next assay is PRKD1 (human) (UniProt Q15139). Described as above. The note with it: compound 0.5 µM; ATP 10 µM.
In the case of `CCN(CC)CCNC(=O)c1c(C)[nH]c(/C=C2\C(=O)Nc3ccc(Cl)cc32)c1C`, the residual activity is 11.3%.
For `Nc1ncnc2[nH]nc(Nc3ccc(F)cc3)c12`, the residual activity is 98.9%.
The same measure, in the same setting: the same measure for `CNc1cc2c(Nc3cccc(Br)c3)ncnc2cn1`: 92.3%.

The target of another assay is NLK (human) (UniProt Q9UBE8). Described as above. The note with it: compound 0.5 µM; ATP 10 µM.
For the compound `CCN(CC)CCNC(=O)c1c(C)[nH]c(/C=C2\C(=O)Nc3ccc(Cl)cc32)c1C`, the residual activity came out at 101%.
The same measure, in the same setting: the value for `Nc1ncnc2[nH]nc(Nc3ccc(F)cc3)c12` was 95.4%.
In the case of `CNc1cc2c(Nc3cccc(Br)c3)ncnc2cn1`, the residual activity was found to be 84.3%.
